Experimental data published in ChEMBL document CHEMBL5226310, “Synthesis and Characterization of Novel Mono- and Bis-Guanyl Hydrazones as Potent and Selective ASIC1 Inhibitors Able to Reduce Brain Ischemic Insult” (J Med Chem, 2021).
Active and inactive are the calls of the source. The calls are words filed in the database; no cut-off is given here.

How the values were obtained:
Cortical neurone [1] = experiment: Neuroprotective activity in OGD/Rx-induced E16 Wistar rat Primary cortical neurons assessed as increase in cell viability at 2.9 uM incubated for 3 hrs during OGD followed by reoxygenation with compound re-addition measured after 21 hrs by MTT assay; type: functional, cell-based; settings: time 24.0 hrs
[2] = molecular target: T1, Acid-sensing ion channel 1 (Homo sapiens, UniProt P78348); experiment: Inhibition of human ASIC1a in HEK293 cells assessed as inward proton-gated current at pH 6.0 incubated with compound followed by PcTx1 addition by patch-clamp electrophysiology; type: cell-based
T1 sequence (P78348 whole entry): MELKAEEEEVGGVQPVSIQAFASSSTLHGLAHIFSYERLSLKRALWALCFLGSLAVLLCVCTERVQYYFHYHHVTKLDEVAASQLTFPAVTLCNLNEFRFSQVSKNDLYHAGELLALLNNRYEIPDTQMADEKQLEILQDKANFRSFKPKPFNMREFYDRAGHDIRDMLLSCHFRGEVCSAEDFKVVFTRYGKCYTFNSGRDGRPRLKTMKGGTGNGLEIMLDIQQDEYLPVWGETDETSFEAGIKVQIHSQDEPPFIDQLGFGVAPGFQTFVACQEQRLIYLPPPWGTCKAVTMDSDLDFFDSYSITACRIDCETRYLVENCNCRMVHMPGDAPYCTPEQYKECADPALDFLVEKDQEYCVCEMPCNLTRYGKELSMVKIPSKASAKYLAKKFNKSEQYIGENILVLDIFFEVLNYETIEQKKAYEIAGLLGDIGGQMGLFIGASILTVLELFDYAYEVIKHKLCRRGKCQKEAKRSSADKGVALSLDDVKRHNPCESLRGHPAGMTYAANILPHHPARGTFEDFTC

[3] = molecular target: T2, Acid-sensing ion channel 2 (Mus musculus) (UniProt Q925H0); experiment: Inhibition of mouse ASIC2a expressed in genetically engineered-CHO-K1 cells at 10 uM preincubated for 10 mins at pH 7.4 followed by cell stimulation with proton injection at pH 6.5 by electro-chromic fluorescence voltage sensor-based assay relative to control
T2 sequence (whole entry): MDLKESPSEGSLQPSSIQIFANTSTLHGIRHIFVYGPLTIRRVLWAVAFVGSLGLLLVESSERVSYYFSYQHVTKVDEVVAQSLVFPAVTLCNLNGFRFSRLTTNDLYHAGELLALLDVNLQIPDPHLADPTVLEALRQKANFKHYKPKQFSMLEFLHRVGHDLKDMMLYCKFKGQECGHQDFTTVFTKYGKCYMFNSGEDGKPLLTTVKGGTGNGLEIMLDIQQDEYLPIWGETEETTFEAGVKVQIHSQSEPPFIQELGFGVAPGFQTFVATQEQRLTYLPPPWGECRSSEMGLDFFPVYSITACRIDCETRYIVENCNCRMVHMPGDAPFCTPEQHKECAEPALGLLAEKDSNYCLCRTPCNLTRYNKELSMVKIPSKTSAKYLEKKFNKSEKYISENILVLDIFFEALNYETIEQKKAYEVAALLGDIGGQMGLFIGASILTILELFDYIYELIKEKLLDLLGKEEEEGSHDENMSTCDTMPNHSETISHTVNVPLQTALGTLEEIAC

Cortical neurone [4] = experiment: Neuroprotective activity in OGD/Rx-induced E16 Wistar rat Primary cortical neurons assessed as increase in cell viability at 3.14 uM incubated for 3 hrs during OGD followed by compound removal and reoxygenation measured after 21 hrs by MTT assay; type: functional, cell-based
[5] = molecular target: T3, Acid-sensing ion channel 1 (Mus musculus) (UniProt Q6NXK8); experiment: Inhibition of mouse ASIC1a expressed in genetically engineered-CHO-K1 cells at 10 uM preincubated for 10 mins at pH 7.4 followed by cell stimulation with proton injection at pH 6.5 by electro-chromic fluorescence voltage sensor-based assay relative to control
T3 sequence (whole entry): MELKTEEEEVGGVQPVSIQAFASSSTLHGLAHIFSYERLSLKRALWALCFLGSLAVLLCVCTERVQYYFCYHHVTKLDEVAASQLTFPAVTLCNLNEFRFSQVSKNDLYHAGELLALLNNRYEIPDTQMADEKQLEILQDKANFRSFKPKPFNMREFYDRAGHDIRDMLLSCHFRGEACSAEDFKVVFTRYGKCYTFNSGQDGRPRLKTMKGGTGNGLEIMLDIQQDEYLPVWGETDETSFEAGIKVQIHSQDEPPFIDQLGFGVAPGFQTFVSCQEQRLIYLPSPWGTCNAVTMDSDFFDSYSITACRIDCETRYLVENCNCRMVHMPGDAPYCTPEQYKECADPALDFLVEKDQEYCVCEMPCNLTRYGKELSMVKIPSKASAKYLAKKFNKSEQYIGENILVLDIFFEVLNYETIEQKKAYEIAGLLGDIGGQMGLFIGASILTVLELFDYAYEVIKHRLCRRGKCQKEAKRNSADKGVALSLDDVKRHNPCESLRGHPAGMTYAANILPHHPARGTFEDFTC

Cortical neurone [6] = experiment: Neuroprotective activity in OGD/Rx-induced E16 Wistar rat Primary cortical neurons assessed as increase in cell viability at 3.14 uM incubated for 3 hrs during OGD followed by reoxygenation with compound re-addition measured after 21 hrs by MTT assay; type: functional, cell-based; settings: time 24.0 hrs
[7] = molecular target: T4, Acid-sensing ion channel 1 (Homo sapiens) (UniProt P78348); experiment: Inhibition of ASIC1a in acid stimulated-human Neural Progenitor Cells assessed as reduction in current amplitude at pH 6.5 at 10 uM measured for 5 mins with acid stimulation for every 2 mins by electrophysiology relative to control; type: cell-based; settings: Neural Progenitor Cell
T4 sequence (whole entry): T1 sequence (P78348 whole entry)

Mus musculus [8] = experiment: Neuroprotective activity in mouse model of middle cerebral artery occlusion-induced transient brain ischemia assessed as ischemic volume at 0.65 mg/kg, ip administered thrice measured after 24 hrs relative to control; type: functional
[9] = molecular target: T4, Acid-sensing ion channel 1 (Homo sapiens); experiment: Inhibition of ASIC1a in acid stimulated-human Neural Progenitor Cells assessed as reduction in current amplitude at pH 6.5 at 10 uM measured for 5 mins with acid stimulation for every 2 mins by electrophysiology (reference value: 92.41 +/- 33.66 pA); type: cell-based; settings: Neural Progenitor Cell
Cortical neurone [10] = experiment: Neuroprotective activity in OGD/Rx-induced E16 Wistar rat Primary cortical neurons assessed as increase in cell viability incubated for 3 hrs during OGD followed by reoxygenation with compound re-addition measured after 21 hrs by MTT assay; type: functional, cell-based; settings: time 24.0 hrs
Cortical neurone [11] = experiment: Neuroprotective activity in OGD/Rx-induced E16 Wistar rat Primary cortical neurons assessed as increase in cell viability at 0.4 uM incubated for 3 hrs during OGD followed by reoxygenation with compound re-addition measured after 21 hrs by MTT assay; type: functional, cell-based; settings: time 24.0 hrs
Mus musculus [12] = experiment: Neuroprotective activity in mouse model of middle cerebral artery occlusion-induced transient brain ischemia assessed as ischemic volume at 6.5 mg/kg, ip administered thrice measured after 24 hrs relative to control; type: functional
Mus musculus [13] = experiment: Neuroprotective activity in mouse model of middle cerebral artery occlusion-induced transient brain ischemia assessed as reduction in focal neurological deficits at 0.65 mg/kg, ip administered thrice measured upto 72 hrs; type: functional, organism-based
Mus musculus [14] = experiment: Neuroprotective activity in mouse model of middle cerebral artery occlusion-induced transient brain ischemia assessed as reduction in general neurological deficits at 0.65 mg/kg, ip administered thrice measured upto 72 hrs; type: functional, organism-based
Mus musculus [15] = experiment: Neuroprotective activity in mouse model of middle cerebral artery occlusion-induced transient brain ischemia assessed as reduction in focal neurological deficits at 0.65 mg/kg, ip administered thrice measured after 24 hrs; type: functional, organism-based
Mus musculus [16] = experiment: Neuroprotective activity in mouse model of middle cerebral artery occlusion-induced transient brain ischemia assessed as decrease in ischemic volume at 0.65 mg/kg, ip administered thrice measured after 24 hrs (reference value: 58 +/- 2.6 %); type: functional; set-up: scale not given: the % may be the effect or the level left
Cortical neurone [17] = experiment: Neuroprotective activity in OGD/Rx-induced E16 Wistar rat Primary cortical neurons assessed as increase in cell viability at 0.4 uM incubated for 3 hrs during OGD followed by compound removal and reoxygenation measured after 21 hrs by MTT assay; type: functional, cell-based
Mus musculus [18] = experiment: Neuroprotective activity in mouse model of middle cerebral artery occlusion-induced transient brain ischemia assessed as reduction in general neurological deficits at 0.65 mg/kg, ip administered thrice measured after 24 hrs; type: functional, organism-based
Mus musculus [19] = experiment: Neuroprotective activity in mouse model of middle cerebral artery occlusion-induced transient brain ischemia assessed as reduction in ischemic volume at 0.65 mg/kg, ip administered thrice measured upto 72 hrs relative to control; type: functional; set-up: scale not given: the % may be the effect or the level left
Cortical neurone [20] = experiment: Neuroprotective activity in OGD/Rx-induced E16 Wistar rat Primary cortical neurons assessed as increase in cell viability at 0.52 uM incubated for 3 hrs during OGD followed by reoxygenation with compound re-addition measured after 21 hrs by MTT assay; type: functional, cell-based; settings: time 24.0 hrs
Cortical neurone [21] = experiment: Neuroprotective activity in OGD/Rx-induced E16 Wistar rat Primary cortical neurons assessed as increase in cell viability at 1.41 uM incubated for 3 hrs during OGD followed by reoxygenation with compound re-addition measured after 21 hrs by MTT assay; type: functional, cell-based; settings: time 24.0 hrs
Cortical neurone [22] = experiment: Neuroprotective activity in OGD/Rx-induced E16 Wistar rat Primary cortical neurons assessed as increase in cell viability at 1.4 uM incubated for 3 hrs during OGD followed by compound removal and reoxygenation measured after 21 hrs by MTT assay; type: functional, cell-based
Mus musculus [23] = experiment: Neuroprotective activity in mouse model of middle cerebral artery occlusion-induced transient brain ischemia assessed as reduction in neurological deficits at 0.8 mg/kg, ip administered thrice measured after 24 hrs; type: functional, organism-based
Mus musculus [24] = experiment: Neuroprotective activity in mouse model of middle cerebral artery occlusion-induced transient brain ischemia assessed as decrease in ischemic volume at 0.8 mg/kg, ip administered thrice measured after 24 hrs (reference value: 58 +/- 2.6 %); type: functional; set-up: scale not given: the % may be the effect or the level left
Cortical neurone [25] = experiment: Neuroprotective activity in OGD/Rx-induced E16 Wistar rat Primary cortical neurons assessed as increase in cell viability at 0.13 uM incubated for 3 hrs during OGD followed by reoxygenation with compound re-addition measured after 21 hrs by MTT assay; type: functional, cell-based; settings: time 24.0 hrs

SMILES: CC(C)(C)c1ccc(-c2cccc(-c3ccc(/C=N/NC(=N)N)cc3)c2)cc1
- Activity (Cortical neurone [1]): Active
- IC50 [2]: 2950 nM

SMILES: Cn1nc(-c2ccc(F)cc2)cc1-c1ccc(/C=N/NC(=N)N)cc1
- inhibition [3]: 96.6%
- Activity (Cortical neurone [4]): Active
- IC50 [2]: 3140 nM
- inhibition [5]: 16.8%
- Activity (Cortical neurone [6]): Active

SMILES: Cl.N=C(N)N/N=C\c1ccc(-c2cccc(-c3ccc(/C=N/NC(=N)N)cc3)c2)cc1
- inhibition [7]: 70%
- inhibition [3]: 35.4%
- Activity (Mus musculus [8]): 47.1%
- Activity [9]: 9.37 pA
- Activity (Cortical neurone [10]): Dose-Dependent Effect
- Activity (Cortical neurone [11]): Active
- Activity (Mus musculus [12]): 50.1%
- Activity (Mus musculus [13]): Active
- IC50 [2]: 407 nM
- Activity (Mus musculus [14]): Active
- Activity (Mus musculus [15]): Active
- Activity (Mus musculus [16]): 34.7%
- inhibition [5]: 53%
- Activity (Cortical neurone [17]): Active
- Activity (Mus musculus [18]): Active
- Activity (Mus musculus [19]): 35.3%

SMILES: COc1ccc(Cn2nc(-c3ccc(/C=N/NC(=N)N)cc3)cc2-c2ccc(/C=N/NC(=N)N)cc2)cc1
- inhibition [3]: 69.7%
- IC50 [2]: 518 nM
- Activity (Cortical neurone [20]): Active
- inhibition [5]: 72.9%

SMILES: Cn1nc(-c2ccc(/C=N/NC(=N)N)cc2)cc1-c1ccc(/C=N/NC(=N)N)cc1
- Activity (Cortical neurone [21]): Active
- inhibition [3]: 43.9%
- Activity (Cortical neurone [22]): Active
- IC50 [2]: 1420 nM
- inhibition [5]: 33.1%

SMILES: Br.Br.C(=N/NC1=NCCN1)/c1ccc(-c2cc(-c3ccc(/C=N/NC4=NCCN4)cc3)[nH]n2)cc1
- inhibition [3]: 50.6%
- Activity (Mus musculus [23]): Active
- IC50 [2]: 972 nM
- Activity (Mus musculus [24]): 40.9%
- inhibition [5]: -3.26%
- Activity (Cortical neurone [25]): Active
